The text below walks through data of ChEMBL document CHEMBL1149102, “De novo design, synthesis, and pharmacology of alpha-melanocyte stimulating hormone analogues derived from somatostatin by a hybrid approach” (J Med Chem, 2004).

The first experiment relates to melanocyte-stimulating hormone receptor (Rana pipiens). Description: Maximum agonist response for frog skin melanocortin 1 receptor (MC1R); No activity up to 10^-5M.
Consider `C[C@@H](O)[C@H](NC(=O)[C@H]1NC(=O)[C@H](Cc2c[nH]c3ccccc23)NC(=O)[C@H](CCCN=C(N)N)NC(=O)[C@@H](Cc2c[nH]c3ccccc23)NC(=O)[C@H](Cc2ccccc2)NC(=O)[C@@H](NC(=O)[C@H](N)Cc2ccccc2)CSSC1(C)C)C(N)=O`, for which the EC50 entry was “Not Active”. On the same count and under the same terms, the value for `C[C@@H](O)[C@H](NC(=O)[C@H]1NC(=O)[C@H](Cc2c[nH]c3ccccc23)NC(=O)[C@H](CCCN=C(N)N)NC(=O)[C@@H](Cc2c[nH]c3ccccc23)NC(=O)[C@H](Cc2ccc(O)cc2)NC(=O)[C@@H](NC(=O)[C@H](N)Cc2ccccc2)CSSC1(C)C)C(N)=O` was “Not Active”; that for `C[C@@H](O)[C@H](NC(=O)[C@@H]1NC(=O)[C@H](Cc2c[nH]c3ccccc23)NC(=O)[C@H](CCCN=C(N)N)NC(=O)[C@H](Cc2c[nH]c3ccccc23)NC(=O)[C@H](Cc2ccccc2)NC(=O)[C@@H](NC(=O)[C@H](N)Cc2ccccc2)CSSC1(C)C)C(N)=O` was “Not Active”; that for `C[C@@H](O)[C@H](NC(=O)[C@H]1NC(=O)[C@H]([C@@H](C)O)NC(=O)[C@H](CCCN=C(N)N)NC(=O)[C@@H](Cc2c[nH]c3ccccc23)NC(=O)[C@H](Cc2ccc(I)cc2)NC(=O)[C@@H](NC(=O)[C@H](N)Cc2ccccc2)CSSC1(C)C)C(N)=O` was “Not Active”. With `C[C@@H](O)[C@H](NC(=O)[C@H]1NC(=O)[C@H](CO)NC(=O)[C@H](CCCN=C(N)N)NC(=O)[C@@H](Cc2c[nH]c3ccccc23)NC(=O)[C@H](Cc2ccc(O)cc2)NC(=O)[C@@H](NC(=O)[C@H](N)Cc2ccccc2)CSSC1(C)C)C(N)=O`, the EC50 entry is on record as “Not Active”.

For a further experiment the test system is unchanged. The experiment can be described thus: Inhibition of 1 nM alpha melanocortin stimulating hormone from frog skin; No activity up to 10^-5 M.
As for `C[C@@H](O)[C@H](NC(=O)[C@@H]1CCSSC[C@H](NC(=O)[C@H](N)Cc2ccccc2)C(=O)N[C@@H](Cc2c[nH]cn2)C(=O)N[C@H](Cc2ccccc2)C(=O)N[C@@H](CCCN=C(N)N)C(=O)N[C@@H](Cc2c[nH]c3ccccc23)C(=O)N1)C(N)=O`, the IC50 result is on record as “Not Active”. For the compound `C[C@@H](O)[C@H](NC(=O)[C@H]1CSSC[C@H](NC(=O)[C@@H](N)Cc2ccccc2)C(=O)N[C@@H](Cc2c[nH]cn2)C(=O)N[C@H](Cc2ccccc2)C(=O)N[C@@H](CCCN=C(N)N)C(=O)N[C@H](Cc2c[nH]c3ccccc23)C(=O)N1)C(N)=O`, the IC50 entry is given as “Not Active”. The same measure, in the same setting: the value for `C[C@@H](O)[C@H](NC(=O)[C@H]1NC(=O)[C@H](Cc2c[nH]c3ccccc23)NC(=O)[C@H](CCCN=C(N)N)NC(=O)[C@@H](Cc2ccccc2)NC(=O)[C@H](Cc2c[nH]cn2)NC(=O)[C@@H](NC(=O)[C@H](N)Cc2ccccc2)CSSC1(C)C)C(N)=O` was “Not Active”; that for `C[C@@H](O)[C@H](NC(=O)[C@@H]1CSSC[C@H](NC(=O)[C@H](N)Cc2ccccc2)C(=O)N[C@@H](Cc2c[nH]cn2)C(=O)N[C@@H](Cc2cccc3ccccc23)C(=O)N[C@@H](CCCN=C(N)N)C(=O)N[C@H](Cc2c[nH]c3ccccc23)C(=O)N1)C(N)=O` was “Not Active”. On to `C[C@@H](O)[C@H](NC(=O)[C@@H]1CSSC[C@H](NC(=O)[C@H](N)Cc2ccccc2)C(=O)N[C@@H](Cc2c[nH]cn2)C(=O)N[C@H](Cc2ccc(Cl)cc2)C(=O)N[C@@H](CCCN=C(N)N)C(=O)N[C@@H](Cc2c[nH]c3ccccc23)C(=O)N1)C(N)=O`, for which the IC50 result is recorded as “Not Active”. The same measure, in the same setting: the same measure for `C[C@@H](O)[C@H](NC(=O)[C@@H]1CSSC[C@H](NC(=O)[C@H](N)Cc2ccccc2)C(=O)N[C@@H](Cc2c[nH]cn2)C(=O)N[C@@H](Cc2ccc(F)cc2)C(=O)N[C@@H](CCCN=C(N)N)C(=O)N[C@H](Cc2c[nH]c3ccccc23)C(=O)N1)C(N)=O`: “Not Active”. As to `C[C@@H](O)[C@H](NC(=O)[C@@H]1CCCCNC(=O)C[C@H](NC(=O)[C@H](N)Cc2ccccc2)C(=O)N[C@@H](Cc2c[nH]cn2)C(=O)N[C@H](Cc2ccccc2)C(=O)N[C@@H](CCCN=C(N)N)C(=O)N[C@@H](Cc2c[nH]c3ccccc23)C(=O)N1)C(N)=O`, the IC50 result is on record as “Not Active”.
